Test results published in PubChem BioAssay AID463204 (Broad Institute, 2010).
Calls of active or inactive are those of the source.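 The calls were made as follows: active = AC50 no more than ten times the top concentration tested, that is within one log above it; inconclusive = flat curve fit with activity between 30% and 70%, or invalid poor fit; inactive = AC50 beyond ten times the top tested dose.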

System: S. cerevisiae Mot1-301 ts growth rescue, BacTiter-Glo ATP luminescence
Test: restored Mot1-301 yeast growth at 38.5C – whole organism, S. cerevisiae, Mot1-301 ts mutant, luminescence, dose retest, SUMOylation pathway inhibitor project, confirmation (AID 463204);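 also: growth at restrictive 38.5 degrees C of Mot1-301 OY566 strain; actives raise luminescence by restoring growth of the ts mutant at high temperature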

Compound | AC50
CCN(CCn1cccn1)C(=O)C1CCC(=O)N(CCc2cccc(F)c2)C1 (stereo not given) | > 42 µM (inactive)
CN(C)CCNC(=O)c1onc(CSc2ccc(F)c(F)c2)c1C(=O)NCCN(C)C | > 42 µM (inactive)
O=C(Nc1ccsc1C(=O)O)c1cccc(C(F)(F)F)c1 | > 42 µM (inactive)
CN1C(=O)c2ccc(NC(=S)NC(=O)C(C)(C)C)cc2C1=O | > 42 µM (inactive)
O=C(NNC(=O)c1ccc(-n2cncn2)c([N+](=O)[O-])c1)c1ccc(Cl)cc1 | > 42 µM (inactive)
Cc1ccc(S(=O)(=O)N2[C@@H](c3ccccc3F)C(C(=O)O)=CC[C@H]2c2ccc3c(c2)OCO3)cc1 | > 42 µM (inactive)
O=C(c1ccco1)N1CCN(C(=O)C2Cc3ccccc3CN2S(=O)(=O)c2ccc(F)cc2)CC1 (stereo not given) | > 42 µM (inactive)
O=C(NNS(=O)(=O)c1c(F)cc(F)c(Cl)c1F)C12CC3CC(CC(C3)C1)C2 | 3.45 µM
CCc1cccc(C)c1NC(=O)CSc1nnc(-c2cc3cc(Br)ccc3o2)n1CC | > 42 µM (inactive)
Cn1c(CN2CCOCC2)nnc1SCC(=O)Nc1cc(Cl)ccc1Cl | > 42 µM (inactive)
CCOc1ccc2nc(CN3CCN(Cc4ccccc4OCC)C(CCO)C3)ccc2c1 (stereo not given) | > 42 µM (inactive)
CCOc1cc(S(=O)(=O)NCc2ccc3c(c2)OCO3)c(C)cc1C | > 42 µM (inactive)
COc1ccc(-c2cc(CC3(C(=O)O)CCN(C(=O)OC(C)(C)C)CC3)on2)c(OC)c1 | > 42 µM (inactive)
COc1cc(/C=C(\C#N)C(=O)Nc2ccc(C(=O)O)cc2)ccc1OC(=O)c1cccc(F)c1 | > 42 µM (inactive)
CN(C)C(CNC(=O)CNC(=O)c1ccc(Br)cc1)c1ccccc1 (stereo not given) | > 42 µM (inactive)
Cc1nn(CCOc2ccccc2)c(=O)n1-c1ccccc1F | > 42 µM (inactive)
COc1ccc2nc(NC(=O)c3cc(S(=O)(=O)N4CCOCC4)ccc3C)sc2c1 | > 42 µM (inactive)
Cc1[nH]nc2c1C(c1cccs1)C1=C(CC(C)(C)CC1=O)N2 (stereo not given) | > 42 µM (inactive)
c1ccc2c(C[C@@H]3CNCCN3CCCCC3CCCCC3)cccc2c1 | 15.6 µM
CCCOC(=O)c1ccc(O)c(OC)c1 | > 42 µM (inactive)
O=C(COc1ccccc1)Nc1ccc(OC(F)(F)C(F)F)c(NC(=O)COc2ccccc2)c1 | > 42 µM (inactive)
CCOc1ccc(CCNC(=O)COC(=O)c2cccc(OC)c2O)cc1OCC | > 42 µM (inactive)
O=C1C2CC=C(Cl)CC2C(=O)N1c1ncn[nH]1 (stereo not given) | > 42 µM (inactive)
COc1ccc(CN2CC(=O)N(c3ccccc3C)C2=S)cc1OC | > 42 µM (inactive)

Compound | AC50
CCCCCCC(C)n1[nH]c(=O)c2c(C)cc(=O)[nH]c21 (stereo not given) | > 42 µM (inactive)
CCOC(=O)C1=C(C)Nc2ncnn2C1/C=C/c1ccccc1 (stereo not given) | > 42 µM (inactive)
COc1ccc2nc(SCC(=O)N(C)CC(=O)Nc3ccc(F)cc3)[nH]c2c1 | > 42 µM (inactive)
O=C(NCCNc1ccc(Cl)cc1[N+](=O)[O-])c1ccccc1F | > 42 µM (inactive)
N#Cc1cc([N+](=O)[O-])cnc1NCC(O)CO (stereo not given) | > 42 µM (inactive)
Cc1ccc(-n2nc3c(=O)n(CCCC(=O)NCc4cccc(F)c4)nc(C)c3c2C)cc1 | > 42 µM (inactive)
CC(NC(=O)C12CC3CC(CC(O)(C3)C1)C2)c1ccccc1 (stereo not given) | > 42 µM (inactive)
CN(C/C=C/c1ccccc1[N+](=O)[O-])Cc1ccccc1 | > 42 µM (inactive)
O=C(N/N=C\c1cn(-c2ccccc2)nc1-c1ccccc1)c1ccc(Br)o1 | > 42 µM (inactive)
COc1ccc2cc(C(=O)Nc3ccc(Cl)cc3)sc(=O)c2c1OC | > 42 µM (inactive)
O=C(N/N=C/c1cccs1)c1cncc(Br)c1 | > 42 µM (inactive)
O=C(NC1CCCCC1)c1ccc2snnc2c1 | > 42 µM (inactive)
O=C(CCC(=O)Nc1ccc(F)cc1)N/N=C/c1cccs1 | > 42 µM (inactive)
O=Cc1cn(Cc2ccccc2F)c2ccccc12 | > 42 µM (inactive)
Cc1c(NC(C)c2cc(Cl)ccc2O)c(=O)n(-c2ccccc2)n1C (stereo not given) | > 42 µM (inactive)
COc1ccc(S(=O)(=O)N2CCCC2CNC(=O)C(=O)NCc2ccccn2)cc1 (stereo not given) | > 42 µM (inactive)
N/C(=N\OC(=O)CCC1CCCC1)c1ccc([N+](=O)[O-])cc1 | > 42 µM (inactive)
CCOC(=O)c1cc([N+](=O)[O-])c([N+](=O)[O-])cc1NC(C)=O | 8.71 µM
CCCCn1c(N)c(N(CCOC)C(=O)c2ccc(Cl)c(S(=O)(=O)N3CCCCC3)c2)c(=O)[nH]c1=O | > 42 µM (inactive)
COc1ccc(S(=O)(=O)N2CCc3cc4c(cc3C2C)OCCCO4)cc1 (stereo not given) | > 42 µM (inactive)
Nc1nc(CSc2nnnn2-c2ccc(Cl)cc2)nc(N2CCOCC2)n1 | > 42 µM (inactive)
CCOc1ccc(N(CC(=O)NC2CCC(C)CC2)S(=O)(=O)c2c(C)noc2C)cc1 (stereo not given) | > 42 µM (inactive)
Cc1c(C(=O)Nc2cccc(F)c2)cnn1-c1ccccc1 | > 42 µM (inactive)
CCCSc1nc(=O)n2cccc(C)c2n1 | > 42 µM (inactive)

Compound | AC50
CCN(CC)CCCNC(=O)C1c2ccccc2C(=O)N(CCOC)C1c1ccc(F)cc1 (stereo not given) | > 21 µM (inactive)
Cc1cccc(C)c1NS(=O)(=O)c1ccc(OCCNS(C)(=O)=O)cc1 | > 42 µM (inactive)
O=C1CCc2cc(S(=O)(=O)N3CCC(C(=O)NC4CCCC4)CC3)ccc2N1 | > 42 µM (inactive)
COC(=O)c1ccccc1N(C)S(C)(=O)=O | > 42 µM (inactive)
CC1(C)CC(=O)C2=C(C1)Oc1ncn(CCO)c(=N)c1C2c1ccccc1 (stereo not given) | > 42 µM (inactive)
CC12CCC(=O)N1C(C(=O)Nc1ccccc1F)CS2 (stereo not given) | > 42 µM (inactive)
COc1cc2c(cc1OC)CN(C(=O)Cc1c(F)cccc1Cl)CC2 | > 42 µM (inactive)
CCOC(=O)C1=C(C)NC(=O)CC1c1cc2c(cc1[N+](=O)[O-])OCO2 (stereo not given) | > 42 µM (inactive)
COc1cccc(N2CCN(C3CCCC(C)C3)CC2)c1 (stereo not given) | > 42 µM (inactive)
Cc1ccc(S(=O)(=O)n2cccc2C)cc1 | > 42 µM (inactive)
COc1ccc(-c2[nH]ncc2CNCCn2cccn2)c(F)c1 | > 42 µM (inactive)
C=C1C2C[C@@]3([C@@H]1O)[C@@H](C[C@@H]2O)[C@@]12C4[C@@H]3C[C@@H]1[C@@](C)(CC[C@@H]2O)CN4CC | > 42 µM (inactive)
CCCNC(=O)Cn1nc(C)n2c(cc3cc(F)ccc32)c1=O | > 42 µM (inactive)
COc1ccc(C(=O)CSc2nnc3ccc(-c4ccccn4)nn23)cc1 | > 42 µM (inactive)
COc1ccc(NC(=O)c2ccc(-c3csc(C)n3)cc2)cc1 | > 42 µM (inactive)
CCCCNC(=O)c1ccccc1NC(=O)C1=C(C)OCCS1 | > 42 µM (inactive)
Nc1ccc(Oc2ccccc2-c2ccccc2)cc1 | 20.8 µM
CCn1cc(C(=O)N2CCN(c3ccc(OC)cc3)CC2)c(=O)c2cc(S(=O)(=O)N3CCOCC3)ccc21 | > 42 µM (inactive)
O=C(C1CCC(CNc2c(N3CCCCC3)c(=O)c2=O)CC1)N1CCN(C2CCCCC2)CC1 (stereo not given) | > 42 µM (inactive)
CC(NC(=O)C1CCCN(S(=O)(=O)N2CCOCC2)C1)c1ccccc1 (stereo not given) | > 42 µM (inactive)
CC1CC(c2ccccc2)NS(=O)(=O)O1 (stereo not given) | > 42 µM (inactive)
O=C(NCc1ccccn1)C1CC(c2ccc(Cl)c(Cl)c2)=NO1 (stereo not given) | > 42 µM (inactive)
